Assay results published in ChEMBL document CHEMBL5260845, “Flavone-based arylamides as potential anticancers: Design, synthesis and in vitro cell-based/cell-free evaluations” (2020).
Active and inactive are the calls of the source. The calls are words filed in the database; no cut-off is given here.

Tests used:
SF-295 [1] = assay: Antiproliferative activity against human SF-295 cells assessed as cell growth inhibition at 10 uM by SRB assay relative to control; assay type: functional
SNB-75 = assay: Antiproliferative activity against human SNB-75 cells assessed as cell growth inhibition at 10 uM by SRB assay relative to control; assay type: functional
SK-MEL-28 = assay: Antiproliferative activity against human SK-MEL-28 cells assessed as cell growth inhibition at 10 uM by SRB assay relative to control; assay type: functional
SK-MEL-5 = assay: Antiproliferative activity against human SK-MEL-5 cells assessed as cell growth inhibition at 10 uM by SRB assay relative to control; assay type: functional
Malme-3M = assay: Antiproliferative activity against human Malme-3M cells assessed as cell growth inhibition at 10 uM by SRB assay relative to control; assay type: functional
CCRF-CEM = assay: Antiproliferative activity against human CCRF-CEM cells assessed as cell growth inhibition at 10 uM by SRB assay; assay type: functional, cell-based
HL-60 = assay: Antiproliferative activity against human HL-60 cells assessed as cell growth inhibition at 10 uM by SRB assay; assay type: functional, cell-based
K562 = assay: Antiproliferative activity against human K562 cells assessed as cell growth inhibition at 10 uM by SRB assay; assay type: functional, cell-based
MOLT-4 = assay: Antiproliferative activity against human MOLT-4 cells assessed as cell growth inhibition at 10 uM by SRB assay; assay type: functional, cell-based
RPMI-8226 = assay: Antiproliferative activity against human RPMI-8226 cells assessed as cell growth inhibition at 10 uM by SRB assay; assay type: functional, cell-based
SR = assay: Antiproliferative activity against human SR cells assessed as cell growth inhibition at 10 uM by SRB assay; assay type: functional, cell-based
A549 = assay: Antiproliferative activity against human A549 cells assessed as cell growth inhibition at 10 uM by SRB assay; assay type: functional, cell-based
EKVX = assay: Antiproliferative activity against human EKVX cells assessed as cell growth inhibition at 10 uM by SRB assay; assay type: functional
HOP-62 = assay: Antiproliferative activity against human HOP-62 cells assessed as cell growth inhibition at 10 uM by SRB assay; assay type: functional, cell-based
HOP-92 = assay: Antiproliferative activity against human HOP-92 cells assessed as cell growth inhibition at 10 uM by SRB assay; assay type: functional, cell-based
NCI-H226 = assay: Antiproliferative activity against human NCI-H226 cells assessed as cell growth inhibition at 10 uM by SRB assay; assay type: functional
NCI-H23 = assay: Antiproliferative activity against human NCI-H23 cells assessed as cell growth inhibition at 10 uM by SRB assay; assay type: functional
NCI-H322M = assay: Antiproliferative activity against human NCI-H322M cells assessed as cell growth inhibition at 10 uM by SRB assay; assay type: functional, cell-based
NCI-H460 = assay: Antiproliferative activity against human NCI-H460 cells assessed as cell growth inhibition at 10 uM by SRB assay; assay type: functional, cell-based
NCI-H522 = assay: Antiproliferative activity against human NCI-H522 cells assessed as cell growth inhibition at 10 uM by SRB assay; assay type: functional, cell-based
HCT-116 = assay: Antiproliferative activity against human HCT-116 cells assessed as cell growth inhibition at 10 uM by SRB assay relative to control; assay type: functional
SF-268 = assay: Antiproliferative activity against human SF-268 cells assessed as cell growth inhibition at 10 uM by SRB assay relative to control; assay type: functional
U-251 = assay: Antiproliferative activity against human U-251 cells assessed as cell growth inhibition at 10 uM by SRB assay relative to control; assay type: functional
SF-539 = assay: Antiproliferative activity against human SF-539 cells assessed as cell growth inhibition at 10 uM by SRB assay relative to control; assay type: functional
SNB-19 = assay: Antiproliferative activity against human SNB-19 cells assessed as cell growth inhibition at 10 uM by SRB assay relative to control; assay type: functional
SF-295 [2] = assay: Antiproliferative activity against human SF-295 cells assessed as cell growth inhibition at 10 uM by SRB assay; assay type: functional, cell-based
SK-MEL-2 = assay: Antiproliferative activity against human SK-MEL-2 cells assessed as cell growth inhibition at 10 uM by SRB assay relative to control; assay type: functional
UACC-257 = assay: Antiproliferative activity against human UACC-257 cells assessed as cell growth inhibition at 10 uM by SRB assay relative to control; assay type: functional
UACC-62 = assay: Antiproliferative activity against human UACC-62 cells assessed as cell growth inhibition at 10 uM by SRB assay relative to control; assay type: functional
M14 = assay: Antiproliferative activity against human M14 cells assessed as cell growth inhibition at 10 uM by SRB assay relative to control; assay type: functional
LOX IMVI = assay: Antiproliferative activity against human LOX IMVI cells assessed as cell growth inhibition at 10 uM by SRB assay relative to control; assay type: functional
MDA-MB-435 = assay: Antiproliferative activity against human MDA-MB-435 cells assessed as cell growth inhibition at 10 uM by SRB assay relative to control; assay type: functional
OVCAR-4 = assay: Antiproliferative activity against human OVCAR-4 cells assessed as cell growth inhibition at 10 uM by SRB assay relative to control; assay type: functional
OVCAR-8 = assay: Antiproliferative activity against human OVCAR-8 cells assessed as cell growth inhibition at 10 uM by SRB assay relative to control; assay type: functional
OVCAR-3 = assay: Antiproliferative activity against human OVCAR-3 cells assessed as cell growth inhibition at 10 uM by SRB assay relative to control; assay type: functional; settings: pooled result: one value given for 2 cell lines, strains, targets or settings
IGROV-1 = assay: Antiproliferative activity against human IGROV-1 cells assessed as cell growth inhibition at 10 uM by SRB assay relative to control; assay type: functional
786-0 = assay: Antiproliferative activity against human 786-0 cells assessed as inhibition of cell growth at 10 uM by SRB assay relative to control; assay type: functional
ACHN = assay: Antiproliferative activity against human ACHN cells assessed as inhibition of cell growth at 10 uM by SRB assay relative to control; assay type: functional; settings: pooled result: one value given for 2 cell lines, strains, targets or settings
RXF 393 = assay: Antiproliferative activity against human RXF 393 cells assessed as inhibition of cell growth at 10 uM by SRB assay relative to control; assay type: functional
SN12C = assay: Antiproliferative activity against human SN12C cells assessed as inhibition of cell growth at 10 uM by SRB assay relative to control; assay type: functional
A498 = assay: Antiproliferative activity against human A498 cells assessed as inhibition of cell growth at 10 uM by SRB assay relative to control; assay type: functional
DU-145 = assay: Antiproliferative activity against human DU-145 cells assessed as inhibition of cell growth at 10 uM by SRB assay relative to control; assay type: functional
MDA-MB-231 = assay: Antiproliferative activity against human MDA-MB-231 cells assessed as inhibition of cell growth at 10 uM by SRB assay relative to control; assay type: functional
Hs-578T [3] = assay: Antiproliferative activity against human Hs-578T cells assessed as inhibition of cell growth at 10 uM by SRB assay relative to control; assay type: functional
UO-31 = assay: Antiproliferative activity against human UO-31 cells assessed as inhibition of cell growth at 10 uM by SRB assay relative to control; assay type: functional
PC-3 = assay: Antiproliferative activity against human PC-3 cells assessed as inhibition of cell growth at 10 uM by SRB assay; assay type: functional, cell-based
Hs-578T [4] = assay: Antiproliferative activity against human Hs-578T cells assessed as inhibition of cell growth at 10 uM by SRB assay; assay type: functional, cell-based

## COc1cc2oc(-c3cccc(NC(=O)c4ccc(Br)cc4)c3)cc(=O)c2c(OC)c1OC
SF-295 [1]
  inhibition at 10 µM: > 50%
SNB-75
  inhibition at 10 µM: > 50%
SK-MEL-28
  inhibition at 10 µM: 50.8%
SK-MEL-5
  inhibition at 10 µM: 50.8%
Malme-3M
  inhibition at 10 µM: 39.1%
CCRF-CEM
  inhibition: Active
HL-60
  inhibition: Active
K562
  inhibition: Active
MOLT-4
  inhibition: Active
RPMI-8226
  inhibition: Active
SR
  inhibition: Active
A549
  inhibition: Active
EKVX
  inhibition: Active
  inhibition at 10 µM: < 50%
HOP-62
  inhibition: Active
HOP-92
  inhibition: Active
NCI-H226
  inhibition: Active
  inhibition at 10 µM: < 50%
NCI-H23
  inhibition: Active
  inhibition at 10 µM: < 50%
NCI-H322M
  inhibition: Active
NCI-H460
  inhibition: Active
NCI-H522
  inhibition: Active
HCT-116
  inhibition at 10 µM: 84%
SF-268
  inhibition at 10 µM: > 50%
U-251
  inhibition at 10 µM: > 50%
SF-539
  inhibition at 10 µM: 47.1%
SNB-19
  inhibition at 10 µM: 41.2%
SF-295 [2]
  inhibition: Active
SK-MEL-2; Homo sapiens, SK-MEL-2, dose 10 µM
  inhibition at 10 µM: ≤ 46%
SK-MEL-2; dose 10 µM
  inhibition (INH): 39.07%
UACC-257
  inhibition at 10 µM: 39.1%
UACC-62
  inhibition at 10 µM: 39.1%
M14
  inhibition at 10 µM: 50.8%
LOX IMVI
  inhibition at 10 µM: 50.8%
MDA-MB-435
  inhibition at 10 µM: 50.8%
OVCAR-4
  inhibition at 10 µM: 52.9%
OVCAR-8
  inhibition at 10 µM: 52.9%
OVCAR-3
  inhibition at 10 µM: 52.9%
IGROV-1
  inhibition at 10 µM: 52.9%
786-0
  inhibition at 10 µM: 84%
ACHN
  inhibition at 10 µM: 63.6%
RXF 393
  inhibition at 10 µM: 63.6%
SN12C
  inhibition at 10 µM: 63.6%
A498
  inhibition at 10 µM: 63.6%
DU-145
  inhibition at 10 µM: > 50%
MDA-MB-231
  inhibition at 10 µM: 73.4%
Hs-578T [3]
  inhibition at 10 µM: 73.4%

## COc1cc2oc(-c3ccc(NC(=O)c4ccccc4Br)cc3)cc(=O)c2c(OC)c1OC
CCRF-CEM
  inhibition: Active
HL-60
  inhibition: Active
K562
  inhibition: Active
MOLT-4
  inhibition: Active
RPMI-8226
  inhibition: Active
SR
  inhibition: Active
EKVX
  inhibition at 10 µM: < 50%
HOP-92
  inhibition: Active
NCI-H226
  inhibition at 10 µM: < 50%
NCI-H23
  inhibition at 10 µM: < 50%
NCI-H522
  inhibition: Active
SF-295 [2]
  inhibition: Active
UO-31
  inhibition: Active
PC-3
  inhibition: Active
DU-145
  inhibition at 10 µM: 29.6%
Hs-578T [4]
  inhibition: Active
